Results from US20230381176A1, “A PHARMACEUTICAL COMPOSITION AND USE THEREOF FOR TREATMENT OF CANCER” (Ascentage Pharma (Suzhou) Co., Ltd., priority 2020, published 2023).
Read-outs that look alike come from different tables or passages of the source.

How the values were obtained:
[1] = system: Neuroblastoma SH-SY5Y (ALK F1174L) xenograft; format: in vivo, mouse
Description: (§1) A subcutaneous xenograft tumor model of human tumor immunodeficient mice was established by cell inoculation: tumor cells in logarithmic growth phase were collected, counted, resuspended in 1×PBS, and the cell suspension concentration was adjusted to 2.5-5 ×10^7/mL. The tumor cells were inoculated subcutaneously in the right side of immunodeficient mice with a 1 mL syringe ([…]), 5-10×10^6/0.2 mL/mouse. All animal experiments were strictly in accordance with the specifications for the use and management of experimental animals in GenePharma Co., Ltd. and Suzhou Ascentage Pharma Co., Ltd. The calculation of relevant parameters refers to the Chinese NMPA “Guidelines for Non-Clinical Research Techniques of Cytotoxic Anti-tumor Drugs”.
(§2) Animal body weight and tumor size were measured twice weekly during the experiment. The state of the animal and the presence or absence of death were observed every day. The growth of tumor and the effects of treatment on normal behavior of animals were monitored routinely, specifically involving experimental animal activity, feeding and drinking, weight gain or loss, eyes, clothing hair and other abnormalities. The deaths and clinical symptoms observed during the experiment were recorded in the raw data. All operations for administration and measurement of mouse body weight and tumor volume were performed in a clean bench. According to the requirements of the experimental protocol, after the end of the last administration, plasma and tumor tissues were collected, weighed and photographed. The plasma and tumor samples were frozen at −80° C. for ready-to-use.
(§3) Tumor volume (TV) is calculated as: TV=a×b^2/2, wherein a and b represent the length and width of the tumor to be measured, respectively.
(§4) The relative tumor volume (RTV) is calculated as: RTV=Vt/V1, wherein V1 is the tumor volume at the start of grouping and administration, and Vt is the tumor volume measured on the t day after administration.
(§5) The evaluation index of anti-tumor activity is the relative tumor proliferation rate T/C (%), and the calculation formula thereof is: relative tumor proliferation rate T/C (%)=(TRTV/CRTV)×100%, TRTV is the RTV of treatment group, CRTV is the RTV of solvent control group.
(§6) Change of body weight (%)=(measured body weight−body weight at the start of grouping)/body weight at the start of grouping×100%.
(§7) A dose of drug is considered to be severely toxic if the body weight of mouse is reduced by more than 20% or the number of drug-related deaths exceeds 20%.
(§8) According to the description by Clarke R., Issues in experimental design and endpoint analysis in the study of experimental cytotoxic agents in vivo in breast cancer and other models [J]. Breast Cancer Research & Treatment, 1997, 46(2-3): 255-278, synergy analysis was evaluated using the following formula: synergy factor=((A/C)×(B/C))/(AB/C); A=RTV value of drug A alone group; B=RTV value of drug B alone group; C=RTV value of the solvent control group, and AB=RTV value of the A and B combination group.
(§9) Use of mRECIST (Gao et al., 2015) measured tumor responses included stable disease (SD), partial tumor regression (PR), and complete regression (CR), determined by comparing tumor volume change at day t to its baseline: tumor volume change (%)=(Vt−V1)/V1. The BestResponse was the minimum value of tumor volume change (%) for t≥10. For each time t, the average of tumor volume changes from t=1 to t was also calculated. BestAvgResponse was defined as the minimum value of this average for t≥10. The criteria for response (mRECIST) were adapted from RECIST criteria (Gao et al., 2015; Therasse et al., 2000) and defined as follows: mCR, BestResponse<−95% and BestAvg Response<−40%; mPR, BestResponse<−50% and BestAvgResponse<−20%; mSD, BestResponse<35% and BestAvgResponse<30%; mPD, not otherwise categorized. SD, PR, and CR were considered responders and used to calculate response rate (%). […] Body weight of animals were monitored simultaneously. […]

[2] = system: PTK2 high ovarian PDX OV1385; assay: PTK2 high ovarian PDX model OV1385, Compound 5 and carboplatin and/or paclitaxel; format: in vivo, mouse
Description: as §1, §2, §3, §4, §6, §7, §8
Use of mRECIST (Gao et al., 2015) measured tumor responses included stable disease (SD), partial tumor regression (PR), and complete regression (CR), determined by comparing tumor volume change at day t to its baseline: tumor volume change (%)=(Vt−V1)/V1. The BestResponse was the minimum value of tumor volume change (%) for t≥10. For each time t, the average of tumor volume changes from t=1 to t was also calculated. BestAvgResponse was defined as the minimum value of this average for t≥10. The criteria for response (mRECIST) were adapted from RECIST criteria (Gao et al., 2015; Therasse et al., 2000) and defined as follows: mCR, BestResponse<−95% and BestAvg Response<−40%; mPR, BestResponse<−50% and BestAvgResponse<−20%; mSD, BestResponse<35% and BestAvgResponse<30%; mPD, not otherwise categorized. SD, PR, and CR were considered responders and used to calculate response rate (%). […] Body weight of animals were monitored simultaneously. The change in body weight was calculated based on the animal weight of the first day of dosing (day 1). Tumor volume and changes in body weight (%) were represented as the mean±standard error of the mean (SEM).

[3] = system: Neuroblastoma SH-SY5Y (ALK F1174L) xenograft; assay: s.c. Neuroblastoma SH-SY5Y xenograft model, Compound 5 and Compound 33; format: in vivo
Description: as §1, §2, §3, §4, §5, §6, §7, §8, §9

[4] = system: ovarian PA-1 xenograft; assay: s.c. ovarian PA-1 xenograft tumor model, Compound 5 and carboplatin; format: in vivo, mouse
Description: as §1, §2, §3, §4, §5, §6, §7, §8
Use of mRECIST (Gao et al., 2015) measured tumor responses included stable disease (SD), partial tumor regression (PR), and complete regression (CR), determined by comparing tumor volume change at day t to its baseline: tumor volume change (%)=(Vt−V1)/V1. The BestResponse was the minimum value of tumor volume change (%) for t≥10. For each time t, the average of tumor volume changes from t=1 to t was also calculated. […] Body weight of animals were monitored simultaneously. […]

[5] = system: A549 NSCLC xenograft; assay: s.c. A549 NSCLC lung cancer model, Compound 5 and panobinostat; format: in vivo, mouse
[6] = Compound 5 50 mg/kg, ribociclib 75 mg/kg, orally once per day, 21 days
[7] = Compound 5 50 mg/kg orally once per day, carboplatin 30 mg/kg i.p. once a week, paclitaxel 10 mg/kg i.v. once a week, 35 days
[8] = Compound 5 50 mg/kg orally once per day, Compound 33 50 mg/kg orally once per day D1-D10 and once on D21
[9] = Compound 5 100 mg/kg orally once per day 21 days, carboplatin 50 mg/kg i.p. once on Day 1
[10] = Compound 5 100 mg/kg orally once per day, panobinostat 3 mg/kg i.p. 5 days then 2 days break, 14 days

Cc1cc(Nc2ncc(Cl)c(Nc3ccccc3S(=O)(=O)C(C)C)n2)c(OC(C)C)cc1C1=CCN(C2CCOCC2)CC1 [Compound 5, 5-chloro-N^2-(2-isopropoxy-5-methyl-4-(1-(tetrahydro-2H-pyran-4-yl)-1,2,3,6-tetrahydropyridin-4-yl)phenyl)-N^4-(2-(isopropylsulfonyl)phenyl)pyrimidine-2,4-diamine]
RTV on Day 21 after administration (mean ± standard error) [1, 6]: 1.79 ± 0.22
T/C on Day 21 after administration (%) [1, 6]: 6.74%
mRECIST on Day 21 after administration ([1]; Day 21, animals per class): 2/5 SD, 3/5 PD
Disease control rate ([1]; based on mRECIST): 2/5 PD (60%)
antitumor activity (conclusion in words) ([1]; mouse, in vivo): strong antitumor activity
body weight loss ([1]; mouse, in vivo): less than 10%
RTV on Day 35 after administration (mean ± standard error) [2, 7]: 4.10 ± 0.42
T/C on Day 35 after administration (%) [2, 7]: 101.49%
mRECIST on Day 35 after administration ([2]; Day 35, animals per class): 2/2 PD
mRECIST ([2]; best response, animals per class): 2/2 PD
RTV on Day 21 after administration (mean + standard error) [3, 8]: 1.79 ± 0.22
T/C on Day 21 after administration (%) [3, 8]: 6.74%
DCR ([3]; mouse, in vivo): 60
ORR (%) ([3]; mouse, in vivo): 0%
antitumor activity (conclusion in words) ([3]; mouse, in vivo): strong antitumor activity
RTV on Day 22 after administration (mean ± standard error) [4, 9]: 10.0 ± 1.0
T/C on Day 22 after administration (%) [4, 9]: 62.89%
antitumor activity (conclusion in words) ([4]; mouse, in vivo): moderate antitumor activity
RTV on Day 14 after administration (mean ± standard error) [5, 10]: 3.21 ± 0.46
T/C on Day 14 after administration (%) [5, 10]: 89.54%
antitumor activity (conclusion in words) ([5]; mouse, in vivo): minor antitumor activity
